The results in this text go back to article PMC8597724, “Kanglemycin A Can Overcome Rifamycin Resistance Caused by ADP-Ribosylation by Arr Protein” (Antimicrobial Agents and Chemotherapy, 2021).

The target of the test is T1, ArrMab (Mycobacteroides abscessus, UniProt B1MH05).
T1 construct: gene MAB_0591; N-terminal 6xHis tag (pET28), expressed in E. coli T7 Express; RED-NHS amine-labelled for MST
Put plainly: microscale thermophoresis. It counts as binding. From the text:
microscale thermophoresis on ArrMab | ArrMab bound both antibiotics with the same Kd
Background: In MST a laser heats a spot of the sample, and binding alters the fluorescence response.

T1 sequence (B1MH05 entry or part of it): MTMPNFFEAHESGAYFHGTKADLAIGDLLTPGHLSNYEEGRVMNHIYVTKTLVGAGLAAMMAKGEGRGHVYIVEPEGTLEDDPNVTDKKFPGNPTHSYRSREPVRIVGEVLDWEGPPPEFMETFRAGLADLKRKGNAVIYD

In turn, `CO[C@H]1/C=C/O[C@@]2(C)Oc3c(C)c(O)c4c(O)c(c(/C=N/N5CCN(C)CC5)c(O)c4c3C2=O)NC(=O)/C(C)=C\C=C\[C@H](C)[C@H](O)[C@@H](C)[C@@H](O)[C@@H](C)[C@H](OC(C)=O)[C@@H]1C` [rifampicin] had a Kd of 27.9 µM.

For orientation: Kd means the concentration at which binding is half-saturated. A low value points to tighter binding.
